Test results as given in patent US20260297060A1, “COMPOUNDS FOR THE DEGRADATION OF MUTANT BRAF” (C4 THERAPEUTICS, INC., priority 2023, published 2026).

System: A375 human melanoma xenografts
Test: In vivo therapeutic efficacy in A375 human melanoma xenografts (tumor volume, T/C, TGI), Example 14
Parameters: species or system human tumor in female BALB/c nude mice
Details: for Tumor volume: mean ± SEM; for T/C / TGI: PG-D21
Experimental: Agents were tested in the A375 human melanoma xenografts. Compound 26 and Compound 141 were administered to BALB/c nude mice bearing A375 tumors from PG-DO and dosed via PO twice a day (BID) or third a day (TIP) or dosed P daily (QD) from PG-D. Dabrafenib was administered to BALB/c nude mice bearing A375 tumors from PG-D1 and dosed via P daily (QD). Compound 26 was dosed at 1.5 mg/kg (QD), 2 mg/kg (TID), 3 mg/kg (BID), 6 mg/kg (QD) and 10 mg/kg (BID) for 21 days. Compound 141 was dosed at 0.75 mg/kg (BID), 1 mg/kg (TID), 1.5 mg/kg (BID), 3 mg/kg (QD) and 5 mg/kg (BID) for 21 days. Dabrafenib was dosed at 100 mg/kg for 21 days. This study was non-GLP.
One hundred and thirty-eight female BALB/c nude Mus Musculus mice procured from Shanghai Lingchang Biological Science and Technology Co., LTD between the ages of six to eight weeks and with body weight between eighteen and twenty-two grams were used for the study. A spare mouse was also procured.
The A375 tumor cells were maintained in vitro in DMEM medium supplemented with 10% fetal bovine serum and 1% Penicillin-Streptomycin at 37° C. in an atmosphere of 5% CO2 in air. The tumor cells were routinely sub-cultured twice weekly. The cells growing in an exponential growth phase were harvested and counted for tumor inoculation.
Each mouse was inoculated subcutaneously at the right flank with A375 cells (5×10^6) in 0.2 mL of PBS supplemented with Matrigel (PBS: Matrigel=1:1) for tumor development. Animals were grouped for efficacy study on day 15 after tumor inoculation when the average tumor volume reached 220 mm^3. The test articles administration and the animal numbers in each group are shown in the above experimental Table 75.
At the time of routine monitoring, the animals were checked daily for any effects of tumor growth and treatments on normal behavior such as mobility, food and water consumption (by looking only), body weight gain/loss (body weights were measured twice weekly), eye/hair matting and any other abnormal effect as stated in the protocol. Death and observed clinical signs were recorded on the basis of the numbers of animals within each subset.
Prior to the onset of drug treatment, mice were measured for tumor size in two dimensions using a caliper, and the tumor volume (mm^3) was calculated using formula V=0.5 a×b^2 where a and b are the long and short diameters of the tumor in mm, respectively. Mice were randomized into different treatment groups based on the tumor volume.
The major endpoint was to see if the tumor growth could be delayed or mice could be cured. The tumor size was then used for calculations of T/C value. The T/C value (in percent) is an indication of antitumor effectiveness; T and C are the mean volumes of the treated and control groups, respectively on specified day.
TGI was calculated for each group using the formula: TGI (%)=[1−(Ti−T0)/(Ci−C0)]×100; Ti is the average tumor volume of a treatment group on a given day, T0 is the average tumor volume of the treatment group on the day of treatment start, Ci is the average tumor volume of the vehicle control group on the same day with Ti, and C0 is the average tumor volume of the vehicle group on the day of treatment start.
A one-way ANOVA followed by Dunnett's multiple comparison test was performed to compare tumor volume among vehicle group (Group 1) and treatment groups (Group 2-Group 12). All data were analyzed using GraphPad Prism, ns indicates p>0.05, * indicates p<0.05, ** indicates p<0.01, *** indicates p<0.001 and **** indicates p<0.0001.
Tumor growth inhibition of Compound 26, Compound 141 and dabrafenib in the treatment of female BALB/c nude mice bearing A375 xenografts was calculated based on tumor volume measured on […]. TGI and T/C were calculated respectively and the data are detailed in Table 82.

[1] = Compound 26, 1.5 mg/kg p.o. BID × 21 days

CCN(C)S(=O)(=O)Nc1ccc(F)c(Oc2ccc3ncn([C@H]4COC5(CCN(C6CC7(C6)CN(c6cc8c(cc6F)c(N6CCC(=O)NC6=O)nn8C)C7)CC5)C4)c(=O)c3c2)c1C#N [Compound 26, (3R)-3-[6-[2-cyano-3-[[ethyl(methyl)sulfamoyl]amino]-6-fluoro-phenoxy]-4-oxo-quinazolin-3-yl]-8-[2-[3-(2,4-dioxohexahydropyrimidin-1-yl)-5-fluoro-1-methyl-indazol-6-yl]-2-azaspiro[3.3]heptan-6-yl]-1-oxa-8-azaspiro[4.5]decane]
Tumor volume (3 mg/kg p.o. BID x 21 days, day 46 (dosing-free regrowth)): 1050 ± 191 mm^3
Tumor volume (3 mg/kg p.o. BID x 21 days, day 49 (dosing-free regrowth)): 1328 ± 237 mm^3
Tumor volume (3 mg/kg p.o. BID x 21 days, day 53 (dosing-free regrowth)): 1789 ± 341 mm^3
Tumor volume (3 mg/kg p.o. BID x 21 days, day 56 (dosing-free regrowth)): 2242 ± 453 mm^3
Tumor Size on PG-D21 (Mean ± SEM) (3 mg/kg p.o. BID × 21 days): 48 ± 9 mm^3
T/C (3 mg/kg p.o. BID × 21 days): 2.5%
TGI (3 mg/kg p.o. BID × 21 days): 110.4%
Tumor volume (6 mg/kg p.o. QD x 21 days, day 0): 220 ± 16 mm^3
Tumor volume (6 mg/kg p.o. QD x 21 days, day 4): 243 ± 16 mm^3
Tumor volume (6 mg/kg p.o. QD x 21 days, day 7): 158 ± 10 mm^3
Tumor volume (6 mg/kg p.o. QD x 21 days, day 11): 101 ± 7 mm^3
Tumor volume (6 mg/kg p.o. QD x 21 days, day 14): 62 ± 4 mm^3
Tumor volume (6 mg/kg p.o. QD x 21 days, day 18): 49 ± 7 mm^3
Tumor volume (6 mg/kg p.o. QD x 21 days, day 21): 54 ± 13 mm^3
Tumor volume (6 mg/kg p.o. QD x 21 days, day 25 (dosing-free regrowth)): 137 ± 74 mm^3
Tumor volume (6 mg/kg p.o. QD x 21 days, day 28 (dosing-free regrowth)): 230 ± 109 mm^3
Tumor volume (6 mg/kg p.o. QD x 21 days, day 32 (dosing-free regrowth)): 335 ± 129 mm^3
Tumor volume (6 mg/kg p.o. QD x 21 days, day 35 (dosing-free regrowth)): 478 ± 161 mm^3
Tumor volume (6 mg/kg p.o. QD x 21 days, day 39 (dosing-free regrowth)): 751 ± 185 mm^3
Tumor volume (6 mg/kg p.o. QD x 21 days, day 42 (dosing-free regrowth)): 894 ± 208 mm^3
Tumor volume (6 mg/kg p.o. QD x 21 days, day 46 (dosing-free regrowth)): 1363 ± 315 mm^3
Tumor volume (6 mg/kg p.o. QD x 21 days, day 49 (dosing-free regrowth)): 1802 ± 396 mm^3
Tumor volume (6 mg/kg p.o. QD x 21 days, day 53 (dosing-free regrowth)): 1863 ± 377 mm^3
Tumor volume (6 mg/kg p.o. QD x 21 days, day 56 (dosing-free regrowth)): 2305 ± 461 mm^3
Tumor Size on PG-D21 (Mean ± SEM) (6 mg/kg p.o. QD × 21 days): 54 ± 13 mm^3
T/C (6 mg/kg p.o. QD × 21 days): 2.9%
TGI (6 mg/kg p.o. QD × 21 days): 110.0%
Tumor volume (10 mg/kg p.o. BID x 21 days, day 0): 220 ± 15 mm^3
Tumor volume (10 mg/kg p.o. BID x 21 days, day 4): 126 ± 10 mm^3
Tumor volume (10 mg/kg p.o. BID x 21 days, day 7): 65 ± 6 mm^3
Tumor volume (10 mg/kg p.o. BID x 21 days, day 11): 42 ± 4 mm^3
Tumor volume (10 mg/kg p.o. BID x 21 days, day 14): 26 ± 3 mm^3
Tumor volume (10 mg/kg p.o. BID x 21 days, day 18): 20 ± 2 mm^3
Tumor volume (10 mg/kg p.o. BID x 21 days, day 21): 17 ± 2 mm^3
Tumor volume (10 mg/kg p.o. BID x 21 days, day 25 (dosing-free regrowth)): 17 ± 2 mm^3
Tumor volume (10 mg/kg p.o. BID x 21 days, day 28 (dosing-free regrowth)): 29 ± 3 mm^3
Tumor volume (10 mg/kg p.o. BID x 21 days, day 32 (dosing-free regrowth)): 62 ± 16 mm^3
Tumor volume (10 mg/kg p.o. BID x 21 days, day 35 (dosing-free regrowth)): 112 ± 34 mm^3
Tumor volume (10 mg/kg p.o. BID x 21 days, day 39 (dosing-free regrowth)): 253 ± 70 mm^3
Tumor volume (10 mg/kg p.o. BID x 21 days, day 42 (dosing-free regrowth)): 357 ± 91 mm^3
Tumor volume (10 mg/kg p.o. BID x 21 days, day 46 (dosing-free regrowth)): 550 ± 131 mm^3
Tumor volume (10 mg/kg p.o. BID x 21 days, day 49 (dosing-free regrowth)): 711 ± 168 mm^3
Tumor volume (10 mg/kg p.o. BID x 21 days, day 53 (dosing-free regrowth)): 1021 ± 215 mm^3
Tumor volume (10 mg/kg p.o. BID x 21 days, day 56 (dosing-free regrowth)): 1128 ± 250 mm^3
Tumor Size on PG-D21 (Mean ± SEM) (10 mg/kg p.o. BID × 21 days): 17 ± 2 mm^3
T/C (10 mg/kg, p.o., BID × 21 days): 0.9%
TGI (10 mg/kg, p.o., BID × 21 days): 112.2%
minimal effective dose (A-375, po, tumor bearing mouse model, BID, read-out: maximally efficacious minimal dose (MED)): 3 mg/kg
Tumor Size on PG-D21 (Mean ± SEM) [1]: 400 ± 70 mm^3
T/C [1]: 21.2%
TGI [1]: 89.2%
